In brackets after ≈: the same amount, converted by molar mass.
What was measured:
[1] = test system: Mycobacterium tuberculosis; experiment: Antimycobacterial activity against Mycobacterium tuberculosis H37Rv assessed as bacterial growth inhibition by microplate Alamar blue assay; assay type: functional
[2] = Cytotoxicity against African green monkey Vero cells assessed as inhibition of cell growth at 6.25 ug/ml measured after 72 hrs by MTT assay relative to control; assay type: toxicity, cell-based; settings: chlorocebus sabaeus, at 6.25 µg/mL
Escherichia coli [3] = experiment: Antibacterial activity against Escherichia coli assessed as inhibition zone at 75 ug/ml by diffusion method; assay type: functional; settings: read-out: IZ
[4] = Selectivity index, ratio of CC50 for African green monkey Vero cells to MIC for Mycobacterium tuberculosis H37Rv; assay type: toxicity; settings: read-out: Selectivity Index
Pseudomonas aeruginosa [5] = experiment: Antibacterial activity against Pseudomonas aeruginosa assessed as inhibition zone at 25 ug/ml by diffusion method; assay type: functional; settings: read-out: IZ
Pseudomonas aeruginosa [6] = experiment: Antibacterial activity against Pseudomonas aeruginosa assessed as inhibition zone at 50 ug/ml by diffusion method; assay type: functional; settings: read-out: IZ
Escherichia coli [7] = experiment: Antibacterial activity against Escherichia coli assessed as inhibition zone at 50 ug/ml by diffusion method; assay type: functional; settings: read-out: IZ
Escherichia coli [8] = experiment: Antibacterial activity against Escherichia coli assessed as inhibition zone at 25 ug/ml by diffusion method; assay type: functional; settings: read-out: IZ
Pseudomonas aeruginosa [9] = experiment: Antibacterial activity against Pseudomonas aeruginosa assessed as inhibition zone at 75 ug/ml by diffusion method; assay type: functional; settings: read-out: IZ
[10] = Cytotoxicity against African green monkey Vero cells measured after 72 hrs by MTT assay; assay type: toxicity, cell-based; settings: chlorocebus sabaeus
Staphylococcus aureus [11] = experiment: Antibacterial activity against Staphylococcus aureus assessed as inhibition zone at 75 ug/ml by diffusion method; assay type: functional; settings: read-out: IZ
Staphylococcus aureus [12] = experiment: Antibacterial activity against Staphylococcus aureus assessed as inhibition zone at 50 ug/ml by diffusion method; assay type: functional; settings: read-out: IZ
Staphylococcus aureus [13] = experiment: Antibacterial activity against Staphylococcus aureus assessed as inhibition zone at 25 ug/ml by diffusion method; assay type: functional; settings: read-out: IZ

O=C(CCc1cn(Cc2cn(Cc3ccc(F)cc3)nn2)c2ccccc12)N1CCN(C(=O)c2ccccc2C(F)(F)F)CC1
MIC [1]: 5 µM
inhibition at 72 h, 6.25 ug/ml [2]: 5.4%
zone of inhibition at 75 µg/mL (Escherichia coli [3]): 25 mm
selectivity ratio [4]: 268
zone of inhibition at 25 µg/mL (Pseudomonas aeruginosa [5]): 10 mm
zone of inhibition at 50 µg/mL (Pseudomonas aeruginosa [6]): 15 mm
zone of inhibition at 50 µg/mL (Escherichia coli [7]): 23 mm
zone of inhibition at 25 µg/mL (Escherichia coli [8]): 15 mm
zone of inhibition at 75 µg/mL (Pseudomonas aeruginosa [9]): 18 mm
CC50 at 72 h [10]: 837 µg/mL (≈ 1350 µM)
zone of inhibition at 75 µg/mL (Staphylococcus aureus [11]): 20 mm
zone of inhibition at 50 µg/mL (Staphylococcus aureus [12]): 13 mm

O=C(CCc1cn(Cc2cn(Cc3ccc(F)cc3)nn2)c2ccccc12)N1CCN(C(=O)c2ccnc(Cl)c2)CC1
MIC [1]: 2.7 µM
inhibition at 72 h, 6.25 ug/ml [2]: 11.8%
zone of inhibition at 75 µg/mL (Escherichia coli [3]): 20 mm
selectivity ratio [4]: 673
zone of inhibition at 25 µg/mL (Pseudomonas aeruginosa [5]): 10 mm
zone of inhibition at 50 µg/mL (Pseudomonas aeruginosa [6]): 13 mm
zone of inhibition at 50 µg/mL (Escherichia coli [7]): 18 mm
zone of inhibition at 25 µg/mL (Staphylococcus aureus [13]): 13 mm
zone of inhibition at 75 µg/mL (Pseudomonas aeruginosa [9]): 15 mm
CC50 at 72 h [10]: 1080 µg/mL (≈ 1840 µM)
zone of inhibition at 75 µg/mL (Staphylococcus aureus [11]): 18 mm
zone of inhibition at 50 µg/mL (Staphylococcus aureus [12]): 13 mm

O=C(CCc1cn(Cc2cn(Cc3ccc(F)cc3)nn2)c2ccccc12)N1CCN(S(=O)(=O)c2ccccc2)CC1
MIC [1]: 10.6 µM
inhibition at 72 h, 6.25 ug/ml [2]: 11.1%
zone of inhibition at 75 µg/mL (Escherichia coli [3]): 20 mm
selectivity ratio [4]: 247
zone of inhibition at 25 µg/mL (Pseudomonas aeruginosa [5]): 10 mm
zone of inhibition at 50 µg/mL (Pseudomonas aeruginosa [6]): 13 mm
zone of inhibition at 50 µg/mL (Escherichia coli [7]): 15 mm
zone of inhibition at 25 µg/mL (Staphylococcus aureus [13]): 9 mm
zone of inhibition at 25 µg/mL (Escherichia coli [8]): 13 mm
zone of inhibition at 75 µg/mL (Pseudomonas aeruginosa [9]): 15 mm
CC50 at 72 h [10]: 1540 µg/mL (≈ 2630 µM)
zone of inhibition at 75 µg/mL (Staphylococcus aureus [11]): 20 mm
zone of inhibition at 50 µg/mL (Staphylococcus aureus [12]): 15 mm

Cc1ccc(C(=O)N2CCN(C(=O)CCc3cn(Cc4cn(Cc5ccc(F)cc5)nn4)c4ccccc34)CC2)cc1
MIC [1]: 5.5 µM
inhibition at 72 h, 6.25 ug/ml [2]: 9.4%
zone of inhibition at 75 µg/mL (Escherichia coli [3]): 25 mm
selectivity ratio [4]: 424
zone of inhibition at 50 µg/mL (Pseudomonas aeruginosa [6]): 10 mm
zone of inhibition at 50 µg/mL (Escherichia coli [7]): 20 mm
zone of inhibition at 25 µg/mL (Staphylococcus aureus [13]): 13 mm
zone of inhibition at 25 µg/mL (Escherichia coli [8]): 15 mm
zone of inhibition at 75 µg/mL (Pseudomonas aeruginosa [9]): 13 mm
CC50 at 72 h [10]: 1320 µg/mL (≈ 2340 µM)
zone of inhibition at 75 µg/mL (Staphylococcus aureus [11]): 20 mm
zone of inhibition at 50 µg/mL (Staphylococcus aureus [12]): 13 mm

COc1ccc(C(=O)N2CCN(C(=O)CCc3cn(Cc4cn(Cc5ccc(F)cc5)nn4)c4ccccc34)CC2)cc1
MIC [1]: 2.7 µM
inhibition at 72 h, 6.25 ug/ml [2]: 8.8%
zone of inhibition at 75 µg/mL (Escherichia coli [3]): 25 mm
selectivity ratio [4]: 916
zone of inhibition at 25 µg/mL (Pseudomonas aeruginosa [5]): 9 mm
zone of inhibition at 50 µg/mL (Pseudomonas aeruginosa [6]): 13 mm
zone of inhibition at 50 µg/mL (Escherichia coli [7]): 23 mm
zone of inhibition at 25 µg/mL (Staphylococcus aureus [13]): 12 mm
zone of inhibition at 25 µg/mL (Escherichia coli [8]): 15 mm
zone of inhibition at 75 µg/mL (Pseudomonas aeruginosa [9]): 18 mm
CC50 at 72 h [10]: 1470 µg/mL (≈ 2520 µM)
zone of inhibition at 75 µg/mL (Staphylococcus aureus [11]): 20 mm
zone of inhibition at 50 µg/mL (Staphylococcus aureus [12]): 18 mm

O=C(CCc1cn(Cc2cn(Cc3ccc(F)cc3)nn2)c2ccccc12)N1CCN(C(=O)c2ccncc2F)CC1
MIC [1]: 5.5 µM
inhibition at 72 h, 6.25 ug/ml [2]: 8.5%
zone of inhibition at 75 µg/mL (Escherichia coli [3]): 20 mm
selectivity ratio [4]: 283
zone of inhibition at 25 µg/mL (Pseudomonas aeruginosa [5]): 10 mm
zone of inhibition at 50 µg/mL (Pseudomonas aeruginosa [6]): 15 mm
zone of inhibition at 50 µg/mL (Escherichia coli [7]): 15 mm
zone of inhibition at 25 µg/mL (Staphylococcus aureus [13]): 10 mm
zone of inhibition at 75 µg/mL (Pseudomonas aeruginosa [9]): 18 mm
CC50 at 72 h [10]: 882 µg/mL (≈ 1550 µM)
zone of inhibition at 75 µg/mL (Staphylococcus aureus [11]): 18 mm
zone of inhibition at 50 µg/mL (Staphylococcus aureus [12]): 15 mm

O=C(CCc1cn(Cc2cn(Cc3ccc(F)cc3)nn2)c2ccccc12)N1CCN(C(=O)c2cccnc2Cl)CC1
MIC [1]: 5.3 µM
inhibition at 72 h, 6.25 ug/ml [2]: 10.1%
zone of inhibition at 75 µg/mL (Escherichia coli [3]): 25 mm
selectivity ratio [4]: 303
zone of inhibition at 50 µg/mL (Pseudomonas aeruginosa [6]): 10 mm
zone of inhibition at 50 µg/mL (Escherichia coli [7]): 23 mm
zone of inhibition at 25 µg/mL (Staphylococcus aureus [13]): 10 mm
zone of inhibition at 25 µg/mL (Escherichia coli [8]): 13 mm
zone of inhibition at 75 µg/mL (Pseudomonas aeruginosa [9]): 13 mm
CC50 at 72 h [10]: 946 µg/mL (≈ 1610 µM)
zone of inhibition at 75 µg/mL (Staphylococcus aureus [11]): 18 mm
zone of inhibition at 50 µg/mL (Staphylococcus aureus [12]): 15 mm
